Laboratory results: patent US20250163048A1 (Tango Therapeutics, Inc., priority 2022, published 2025)
Like-named read-outs stand apart in the source and are kept apart here.

What was measured:
[1] = tested on: HAP1 MTAP-deleted cell line; experiment: SDMA in-cell western assay, HAP1 MTAP-deleted; details: for IC50 / IC90: Homo sapiens; for Hap1 MTAP intact/deleted ratio: IC50 ratio between HAP1 MTAP-intact and HAP1 MTAP-deleted cell line
[2] = tested on: MTAP-deleted cell line; experiment: viability assay for the MTAP-deleted cell line; format: cell-based; details: Homo sapiens, HAP1, viability assay
[3] = tested on: HAP1 MTAP-intact cell line; experiment: SDMA in-cell western assay, HAP1 MTAP-intact; details: Homo sapiens
[4] = HAP1, read-out: Hap1 MTAP deleted IC50, SDMA in-cell western assay, HAP1 MTAP-deleted cell line
[5] = HAP1, read-out: Hap1 MTAP deleted IC90, SDMA in-cell western assay, HAP1 MTAP-deleted cell line
[6] = HAP1, read-out: Hap1 MTAP intact IC50, SDMA in-cell western assay, HAP1 MTAP-intact cell line
[7] = HAP1, read-out: Hap1 MTAP deleted IC50, SDMA in-cell western, HAP1 MTAP-deleted cell line
[8] = HAP1, read-out: Hap1 MTAP deleted IC90, SDMA in-cell western, HAP1 MTAP-deleted cell line
[9] = HAP1, read-out: Hap1 MTAP intact IC50, SDMA in-cell western, HAP1 MTAP-intact cell line
[10] = HAP1, read-out: Hap1 MTAP intact IC50

Row | SMILES | IC50 [1, 4] [µM] | IC90 [1, 5] [µM] | IC50 [3, 6] [µM] | IC50 [1, 7] [µM] | IC90 [1, 8] [µM] | IC50 [3, 9] [µM] | Hap1 MTAP intact/deleted ratio ([1]; SDMA in-cell western assay) | IC50 [2] [µM] | Hap1 MTAP intact/deleted ratio ([1]; SDMA in-cell western) | IC50 [3, 10] [µM]
1 | CC1CCC(c2ccc3cn(C4CCN(C)CC4C)nc3c2)N(C(=O)C(=O)Nc2cncc3cn[nH]c23)C1 (racemic) [Compound 173, 2-oxo-N-(1H-pyrazolo[4,3-c]pyridin-7-yl)-2-[rac-(2R,5S)-5-methyl-2-[2-[rac-(3R,4S)-1,3-dimethyl-4-piperidyl]indazol-6-yl]-1-piperidyl]acetamide] | – | – | – | < 0.005 | < 0.075 | > 0.05 | – | < 0.1 | A (“A” indicates an IC50 ratio greater than or equal to 30 fold) | –
2 | C[C@H]1CC[C@H](c2ccc3scnc3c2)N(C(=O)C(=O)Nc2cncc3cn[nH]c23)C1 [Compound 26, 2-((2R,5S)-2-(benzo[d]thiazol-5-yl)-5-methylpiperidin-1-yl)-2-oxo-N-(1H-pyrazolo[4,3-c]pyridin-7-yl)acetamide] | – | – | – | 0.005 to 0.05 | > 0.125 | – | – | 0.1 to 1 | A (“A” indicates an IC50 ratio greater than or equal to 30 fold) | > 0.05
3 | C[C@@H]1C[C@@H](c2nc3cc([C@H]4CC[C@H](C)CN4C(=O)C(=O)Nc4cncc5cn[nH]c45)ccc3s2)CN(C)C1 (single isomer, unassigned) [Compound 171] | – | – | – | < 0.005 | < 0.075 | > 0.05 | – | < 0.1 | B (“B” indicates an IC50 ratio greater than or equal to 15 fold but lower than 30 fold) | –
4 | Nc1ncc(NC(=O)C(=O)N2CCCC[C@@H]2C2CCCC2)c2[nH]ncc12 (stereo in doubt) [Compound 127, N-(4-amino-1H-pyrazolo[4,3-c]pyridin-7-yl)-2-(2-cyclopentylpiperidin-1-yl)-2-oxoacetamide] | – | – | – | < 0.005 | < 0.075 | > 0.05 | – | < 0.1 | A (“A” indicates an IC50 ratio greater than or equal to 30 fold) | –
5 | [2H]c1c([2H])c([2H])c([C@@H]2CC[C@H](C)CN2C(=O)C(=O)Nc2cnc(N)c3cn[nH]c23)c([2H])c1[2H] (single isomer, unassigned) [Compound 286] | 0.005 to 0.05 | > 0.125 | – | – | – | – | – | 0.1 to 1 | – | > 0.05
6 | C[C@H]1CC[C@H](c2ccc3sc([C@@H](C)CN(C)C)nc3c2)N(C(=O)C(=O)Nc2cncc3c(N)nccc23)C1 (relative stereo) [Compound 76, N-(8-amino-2,7-naphthyridin-4-yl)-2-((2R,5S)-2-(2-((S)-1-(dimethylamino)propan-2-yl)benzo[d]thiazol-5-yl)-5-methylpiperidin-1-yl)-2-oxoacetamide] | – | – | – | 0.005 to 0.05 | < 0.075 | > 0.05 | – | < 0.1 | A (“A” indicates an IC50 ratio greater than or equal to 30 fold) | –
7 | C[C@H]1CC[C@H](c2ccc3sc([C@H]4CCN(C)C4)nc3c2)N(C(=O)C(=O)Nc2cncc3cn[nH]c23)C1 (single isomer, unassigned) [Compound 30] | – | – | – | < 0.005 | < 0.075 | 0.005 to 0.05 | – | < 0.1 | B (“B” indicates an IC50 ratio greater than or equal to 15 fold but lower than 30 fold) | –
8 | CC1OCc2c(NC(=O)C(=O)N3C[C@@H](C)CC[C@@H]3c3ccccc3)cnc(N)c21 (single isomer, unassigned) [Compound 204] | > 0.05 | > 0.125 | > 0.05 | – | – | – | C (“C” indicates an IC50 ratio of less than 15 fold) | > 1 | – | –
9 | CO[C@@H]1C[C@@H](c2ccc(F)cc2)N(C(=O)C(=O)Nc2cnc(N)c3cn[nH]c23)C[C@@H]1C (single isomer, unassigned) [Compound 7] | – | – | – | < 0.005 | < 0.075 | 0.005 to 0.05 | – | < 0.1 | B (“B” indicates an IC50 ratio greater than or equal to 15 fold but lower than 30 fold) | –
10 | CO[C@@H]1C[C@H](c2ccc(F)cc2)N(C(=O)C(=O)Nc2cnc(N)c3cn[nH]c23)C[C@H]1C (single isomer, unassigned) [Compound 116] | – | – | – | < 0.005 | < 0.075 | > 0.05 | – | < 0.1 | A (“A” indicates an IC50 ratio greater than or equal to 30 fold) | –
11 | C[C@H]1CC[C@H](c2ccc3sc(C4CCN(C)CC4)nc3c2)N(C(=O)C(=O)Nc2cncc3[nH]ncc23)C1 (single isomer, unassigned) [Compound 43] | – | – | – | < 0.005 | < 0.075 | 0.005 to 0.05 | – | < 0.1 | C (“C” indicates an IC50 ratio of less than 15 fold) | –
12 | C[C@H]1CC[C@H](c2ccc3sc(C4CCN(C)CC4)nc3c2)N(C(=O)C(=O)Nc2cncc3cn[nH]c23)C1 [Compound 94, 2-oxo-N-(1H-pyrazolo[4,3-c]pyridin-7-yl)-2-[(2R,5S)-5-methyl-2-[2-(1-methyl-4-piperidyl)-1,3-benzothiazol-5-yl]-1-piperidyl]acetamide] | – | – | – | < 0.005 | < 0.075 | – | – | < 0.1 | B (“B” indicates an IC50 ratio greater than or equal to 15 fold but lower than 30 fold) | 0.005 to 0.05
13 | C[C@H]1CC[C@H](c2ccc3cn(C4CCOC4)nc3c2)N(C(=O)C(=O)Nc2cncc3cn[nH]c23)C1 (mixture of isomers) [Compound 148, 2-oxo-N-(1H-pyrazolo[4,3-c]pyridin-7-yl)-2-[rac-(2R,5S)-5-methyl-2-(2-tetrahydrofuran-3-ylindazol-6-yl)-1-piperidyl]acetamide] | – | – | – | 0.005 to 0.05 | 0.075 to 0.125 | > 0.05 | – | 0.1 to 1 | B (“B” indicates an IC50 ratio greater than or equal to 15 fold but lower than 30 fold) | –
14 | C[C@H]1CC[C@H](c2ccc3sc([C@@H]4CCN(C)C4)nc3c2)N(C(=O)C(=O)Nc2cncc3cn[nH]c23)C1 (single isomer, unassigned) [Compound 2] | – | – | – | < 0.005 | < 0.075 | 0.005 to 0.05 | – | < 0.1 | C (“C” indicates an IC50 ratio of less than 15 fold) | –

Further lines, with some results ahead:

Row | IC50 [1, 4] [µM] | IC90 [1, 5] [µM] | IC50 [3, 6] [µM] | IC50 [1, 7] [µM] | IC90 [1, 8] [µM] | IC50 [3, 9] [µM] | SMILES | Hap1 MTAP intact/deleted ratio ([1]; SDMA in-cell western assay) | IC50 [2] [µM] | Hap1 MTAP intact/deleted ratio ([1]; SDMA in-cell western) | IC50 [3, 10] [µM]
15 | < 0.005 | < 0.075 | > 0.05 | – | – | – | Cc1cc([C@H]2CC[C@H](C)CN2C(=O)C(=O)Nc2cnc(N)c3cn[nH]c23)cnc1C (racemic) [Compound 241, N-(4-Amino-1H-pyrazolo[4,3-c]pyridin-7-yl)-2-oxo-2-[rac-(2R,5S)-2-(5,6-dimethyl-3-pyridyl)-5-methyl-1-piperidyl]acetamide] | A (“A” indicates an IC50 ratio greater than or equal to 30 fold) | < 0.1 | – | –
16 | – | – | – | < 0.005 | < 0.075 | > 0.05 | C[C@H]1CC[C@H](c2ccc(F)c(Cl)c2)N(C(=O)C(=O)Nc2cnc(N)c3cn[nH]c23)C1 (racemic) [Compound 184, N-(4-amino-1H-pyrazolo[4,3-c]pyridin-7-yl)-2-(rac-(2S,5R)-2-(3-chloro-4-fluorophenyl)-5-methylpiperidin-1-yl)-2-oxoacetamide] | – | < 0.1 | A (“A” indicates an IC50 ratio greater than or equal to 30 fold) | –
17 | 0.005 to 0.05 | > 0.125 | > 0.05 | – | – | – | C[C@@H]1CC[C@H](c2ccnn2C)N(C(=O)C(=O)Nc2cnc(N)c3cn[nH]c23)C1 (stereo in doubt) [Compound 272, N-(4-Amino-1H-pyrazolo[4,3-c]pyridin-7-yl)-2-oxo-2-[rac-(2R,5R)-5-methyl-2-(2-methylpyrazol-3-yl)-1-piperidyl]acetamide] | B (“B” indicates an IC50 ratio greater than or equal to 15 fold but lower than 30 fold) | 0.1 to 1 | – | –
18 | – | – | – | < 0.005 | < 0.075 | > 0.05 | Cc1ncc([C@H]2CC[C@H](C)CN2C(=O)C(=O)Nc2cnc(N)c3cn[nH]c23)cc1Cl [Compound 168] | – | < 0.1 | C (“C” indicates an IC50 ratio of less than 15 fold) | –
19 | – | – | – | 0.005 to 0.05 | > 0.125 | > 0.05 | C[C@@H]1CC[C@H](c2ccnn2C)N(C(=O)C(=O)Nc2cnc(N)c3cn[nH]c23)C1 [Compound 178] | – | 0.1 to 1 | C (“C” indicates an IC50 ratio of less than 15 fold) | –
20 | < 0.005 | < 0.075 | > 0.05 | – | – | – | COc1cncc([C@H]2CC[C@H](C)CN2C(=O)C(=O)Nc2cnc(N)c3cn[nH]c23)c1 (racemic) [Compound 261, N-(4-Amino-1H-pyrazolo[4,3-c]pyridin-7-yl)-2-oxo-2-[rac-(2R,5S)-2-(5-methoxy-3-pyridyl)-5-methyl-1-piperidyl]acetamide] | A (“A” indicates an IC50 ratio greater than or equal to 30 fold) | < 0.1 | – | –
21 | < 0.005 | < 0.075 | – | – | – | – | CC(C)[C@@H]1CC[C@@H](C)CN1C(=O)C(=O)Nc1cnc(N)c2cn[nH]c12 (racemic) [Compound 244, N-(4-amino-1H-pyrazolo[4,3-c]pyridin-7-yl)-2-(rac-(2S,5R)-2-isopropyl-5-methylpiperidin-1-yl)-2-oxoacetamide] | – | < 0.1 | – | > 0.05
